In PMC5046105, “Improved affinity at the cost of decreased specificity: a recurring theme in PDZ-peptide interactions” (Scientific Reports, 2016):
Ends that are not written are not given here.

What was measured:
[1] = target: T1, pWT PDZ2 L391F (Homo sapiens, UniProt Q12959, C378A/I342W/L391F); assay: Stopped-flow binding kinetics, peptide with pWT PDZ2 L391F; details: for Kd: Kd = koff/kon, ± propagated standard error; for Kd / koff: pH 7.5, 10 °C; for kon: Trp342 fluorescence, 1 µM PDZ, peptide 2–40 µM, N-acetylated peptide, 50 mM potassium phosphate pH 7.5, 10 °C; for kon / koff: value ± standard error; for koff: displacement of pre-formed complex (1 µM PDZ, 2 µM peptide) with 100 and 150 µM dansylated RRRETQV peptide
T1 construct: constituting SAP97 residues 311–407 and the mutations I342W and C372A; His-tagged lipoyl protein domain (N, cleaved yes); made in house
T1 sequence (Q12959 311-407 I342W/C378A/L391F): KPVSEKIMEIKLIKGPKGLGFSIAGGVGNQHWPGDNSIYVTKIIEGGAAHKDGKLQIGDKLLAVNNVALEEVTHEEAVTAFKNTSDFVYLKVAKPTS
Description: (§1) The basic experimental parameters determined were the rate constants of association (kon) and dissociation (koff) for each peptide and for all PDZ variants, respectively, in a procedure described in Fig. 2 for the interaction between PDZØ9 and the EKKHTLL peptide as an example.
(§2) Figure 2 Determination of the two rate constants kon and koff for PDZØ9 binding to the EKKHTLL peptide. kon and koff were determined in separate experiments using stopped-flow spectroscopy and monitoring the change in Trp fluorescence upon binding. (a) The experimental trace was obtained by averaging of three individual experiments in which 11 μM of the EKKHTLL peptide was mixed with 1 μM PDZØ9. The trace was fitted to a single exponential function to obtain the observed rate constant, kobs. […] (c) In a displacement reaction a pre-formed complex between PDZØ9 (1 μM) and the EKKHTLL peptide (2 μM) was mixed with a large excess of dansyl-labeled peptide corresponding to the C-terminal […] of HPV18 E6 (150 μM). […] At high concentrations of dansylated peptide, none of the dissociated EKKHTLL will re-bind, and fitting to a single exponential function returns a kobs value which is equal to the dissociation rate constant, koff, of the pre-formed complex.
(§3) All of the stopped-flow experiments conducted in order to measure the rate constants for the peptide/PDZ interactions, were performed on an SX-20 MV stopped-flow spectrometer (Applied Photophysics Leatherhead, UK) at 10 °C in 50 mM potassium phosphate buffer, pH 7.5. Fluorescence was monitored using the change in emission of Trp342 in the PDZ variants (excitation at 280 nm; emission at 330 ± 30 nm). The peptides were N-acetylated (Ontores Biotechnologies) and the concentration of the respective stock solution was determined with either absorbance, quantitative amino acid analysis or direct detect (EMD Millipore). The rate constants of association, kon, and dissociation, koff, were determined in separate experiments. […] For each PDZ variant the kobs values were plotted versus the concentration of peptide and fitted to the general equation for a reversible bimolecular interaction[38][39] from which kon was derived. The koff was measured in a displacement experiment in which a pre-formed complex of PDZ variant (1 μM) and peptide (2 μM) was mixed with high concentrations of a dansylated RRRETQV-peptide (100, and 150 μM), which competes with the unlabelled peptide for binding to the PDZ. […] The kobs value at high peptide concentration is equal to the overall koff value, as described previously.

[2] = target: T2, pWT PDZ2 (pseudo wild type SAP97 PDZ2, I342W/C378A) (Homo sapiens, UniProt Q12959, C378A/I342W); assay: Stopped-flow binding kinetics, peptide with pWT PDZ2; details: for Kd: Kd = koff/kon, ± propagated standard error; for Kd / koff: pH 7.5, 10 °C; for kon: Trp342 fluorescence, 1 µM PDZ, peptide 2–40 µM, N-acetylated peptide, 50 mM potassium phosphate pH 7.5, 10 °C; for kon / koff: value ± standard error; for koff: displacement of pre-formed complex (1 µM PDZ, 2 µM peptide) with 100 and 150 µM dansylated RRRETQV peptide
T2 construct: constituting SAP97 residues 311–407 and the mutations I342W and C372A; His-tagged lipoyl protein domain (N, cleaved yes); made in house
T2 sequence (Q12959 311-407 I342W/C378A): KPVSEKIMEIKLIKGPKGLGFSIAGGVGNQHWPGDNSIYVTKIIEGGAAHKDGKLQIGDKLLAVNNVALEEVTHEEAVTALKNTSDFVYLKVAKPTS
Description: as §1, §2, §3

[3] = target: T3, PDZØ9 (pWT SAP97 PDZ2 L391F/K392M) (Homo sapiens, UniProt Q12959, C378A/I342W/K392M/L391F); assay: Stopped-flow binding kinetics, peptide with PDZØ9; details: stopped-flow; for Kd: Kd = koff/kon, ± propagated standard error; for Kd / koff: pH 7.5, 10 °C; for koff: displacement of pre-formed complex (1 µM PDZ, 2 µM peptide) with 100 and 150 µM dansylated RRRETQV peptide; for koff / kon: value ± standard error; for kon: Trp342 fluorescence, 1 µM PDZ, peptide 2–40 µM, N-acetylated peptide, 50 mM potassium phosphate pH 7.5, 10 °C
T3 construct: constituting SAP97 residues 311–407 and the mutations I342W and C372A; His-tagged lipoyl protein domain (N, cleaved yes); made in house
T3 sequence (Q12959 311-407 I342W/C378A/L391F/K392M): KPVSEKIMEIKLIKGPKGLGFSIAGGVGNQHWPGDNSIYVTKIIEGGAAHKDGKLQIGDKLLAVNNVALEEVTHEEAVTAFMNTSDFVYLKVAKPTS
Description: as §1, §2, §3

[4] = target: T4, pWT PDZ2 K392M (Homo sapiens, UniProt Q12959, C378A/I342W/K392M); assay: Stopped-flow binding kinetics, peptide with pWT PDZ2 K392M; details: for Kd: Kd = koff/kon, ± propagated standard error; for Kd / koff: pH 7.5, 10 °C; for kon: Trp342 fluorescence, 1 µM PDZ, peptide 2–40 µM, N-acetylated peptide, 50 mM potassium phosphate pH 7.5, 10 °C, value ± standard error (EKKHTLL: mean of two experiments); for koff: displacement of pre-formed complex (1 µM PDZ, 2 µM peptide) with 100 and 150 µM dansylated RRRETQV peptide, value ± standard error
T4 construct: constituting SAP97 residues 311–407 and the mutations I342W and C372A; His-tagged lipoyl protein domain (N, cleaved yes); made in house
T4 sequence (Q12959 311-407 I342W/C378A/K392M): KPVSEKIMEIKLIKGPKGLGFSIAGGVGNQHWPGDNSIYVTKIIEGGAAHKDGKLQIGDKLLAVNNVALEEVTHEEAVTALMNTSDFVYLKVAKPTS
Description: as §1, §2, §3

Row | Substance | Kd [1] | kon [1] | koff [1] | Kd [2] | kon [2] | koff [2] | Kd [3] | koff [3] | kon [3] | Kd [4] | kon [4] | koff [4]
1 | Ac-EKKHTLL [EKKHTLL] | 650 ± 7 nM | 1.1e+07 ± 80000 M⁻¹ s⁻¹ | 7.1 ± 0.05 s⁻¹ | 9300 ± 400 nM | 1.2e+07 ± 500000 M⁻¹ s⁻¹ | 112 ± 1.2 s⁻¹ | 560 ± 5 nM | 7.9 ± 0.04 s⁻¹ | 1.4e+07 ± 100000 M⁻¹ s⁻¹ | 14000 ± 2000 nM | 1.1e+07 ± 1.7e+06 M⁻¹ s⁻¹ | 157 ± 2 s⁻¹
2 | Ac-KRKETLV [KRKETLV] | 80 ± 1 nM | 7.4e+06 ± 60000 M⁻¹ s⁻¹ | 0.6 ± 0.005 s⁻¹ | 470 ± 6 nM | 6.4e+06 ± 60000 M⁻¹ s⁻¹ | 3 ± 0.03 s⁻¹ | 80 ± 1 nM | 0.6 ± 0.005 s⁻¹ | 8e+06 ± 60000 M⁻¹ s⁻¹ | 470 ± 2 nM | 7.2e+06 ± 20000 M⁻¹ s⁻¹ | 3.4 ± 0.01 s⁻¹
3 | Ac-NSKETVV [NSKETVV] | 150 ± 1 nM | 1.3e+07 ± 90000 M⁻¹ s⁻¹ | 1.9 ± 0.01 s⁻¹ | 660 ± 7 nM | 1.3e+07 ± 100000 M⁻¹ s⁻¹ | 8.6 ± 0.07 s⁻¹ | 160 ± 2 nM | 1.6 ± 0.01 s⁻¹ | 1e+07 ± 70000 M⁻¹ s⁻¹ | 790 ± 10 nM | 9.7e+06 ± 70000 M⁻¹ s⁻¹ | 7.7 ± 0.18 s⁻¹
4 | Ac-PGKETQL [PGKETQL] | 250 ± 4 nM | 2e+07 ± 300000 M⁻¹ s⁻¹ | 5 ± 0.02 s⁻¹ | 2800 ± 100 nM | 1.8e+07 ± 600000 M⁻¹ s⁻¹ | 51 ± 1.8 s⁻¹ | 240 ± 4 nM | 3.9 ± 0.03 s⁻¹ | 1.6e+07 ± 200000 M⁻¹ s⁻¹ | 2700 ± 200 nM | 1.8e+07 ± 600000 M⁻¹ s⁻¹ | 48 ± 2.3 s⁻¹
5 | Ac-RRRETQV [RRRETQV, reference compound] | 70 ± 1 nM | 8.7e+06 ± 40000 M⁻¹ s⁻¹ | 0.6 ± 0.01 s⁻¹ | 400 ± 5 nM | 8e+06 ± 40000 M⁻¹ s⁻¹ | 3.2 ± 0.04 s⁻¹ | 60 ± 2 nM | 0.6 ± 0.015 s⁻¹ | 9.8e+06 ± 50000 M⁻¹ s⁻¹ | 370 ± 3 nM | 9e+06 ± 40000 M⁻¹ s⁻¹ | 3.3 ± 0.02 s⁻¹
6 | Ac-RSISTDV [RSISTDV] | 180 ± 3 nM | 2.4e+07 ± 300000 M⁻¹ s⁻¹ | 4.3 ± 0.05 s⁻¹ | 1200 ± 30 nM | 2.1e+07 ± 500000 M⁻¹ s⁻¹ | 26 ± 0.3 s⁻¹ | 250 ± 5 nM | 4.3 ± 0.06 s⁻¹ | 1.7e+07 ± 200000 M⁻¹ s⁻¹ | 1800 ± 40 nM | 1.7e+07 ± 300000 M⁻¹ s⁻¹ | 31 ± 0.3 s⁻¹
7 | Ac-SARSTDV [SARSTDV] | 220 ± 3 nM | 1.8e+07 ± 100000 M⁻¹ s⁻¹ | 4 ± 0.05 s⁻¹ | 1600 ± 30 nM | 1.6e+07 ± 200000 M⁻¹ s⁻¹ | 26 ± 0.3 s⁻¹ | 260 ± 5 nM | 3.4 ± 0.06 s⁻¹ | 1.3e+07 ± 100000 M⁻¹ s⁻¹ | 2100 ± 30 nM | 1.2e+07 ± 100000 M⁻¹ s⁻¹ | 25 ± 0.3 s⁻¹
8 | Ac-TSRETDL [TSRETDL] | 210 ± 6 nM | 1.8e+07 ± 400000 M⁻¹ s⁻¹ | 3.8 ± 0.06 s⁻¹ | 2200 ± 70 nM | 3.3e+07 ± 1.1e+06 M⁻¹ s⁻¹ | 71 ± 0.5 s⁻¹ | 170 ± 4 nM | 2.6 ± 0.04 s⁻¹ | 1.5e+07 ± 200000 M⁻¹ s⁻¹ | 4100 ± 200 nM | 1.5e+07 ± 500000 M⁻¹ s⁻¹ | 62 ± 0.9 s⁻¹
9 | Ac-VSKETPL [VSKETPL] | 800 ± 20 nM | 1.1e+07 ± 100000 M⁻¹ s⁻¹ | 8.8 ± 0.2 s⁻¹ | 3900 ± 200 nM | 4e+07 ± 2.2e+06 M⁻¹ s⁻¹ | 154 ± 3 s⁻¹ | 750 ± 20 nM | 6.3 ± 0.2 s⁻¹ | 8.4e+06 ± 60000 M⁻¹ s⁻¹ | 6300 ± 600 nM | 2.4e+07 ± 2.2e+06 M⁻¹ s⁻¹ | 150 ± 3 s⁻¹
